Data: PMC9775191, “A Subset Screen of the Compounds Australia Scaffold Library Identifies 7-Acylaminodibenzoxazepinones as Potent and Selective Hits for Anti-Giardia Drug Discovery” (Biomedicines, 2022)

Test system: G. duodenalis BRIS/91/HEPU/1279
Assay: Primary Giardia screen at 10 µM (live-cell imaging, automated counting)
Format: cell-based, Giardia duodenalis
Conditions: for % Inhibition n=1 48h / % Inhibition n=1 24h: first singlicate assay; for % Inhibition n=2 24h / % Inhibition n=2 48h: re-assessment
Summary of the method: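 Singlicate, 10 μM final, 0.2% DMSO; sealed chambers, 3% O2/5% CO2/N2. Counts by live-cell imaging at 24 h and 48 h. % growth vs vehicle, media background subtracted; Z' per plate.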

Row | Structure (SMILES) | % Inhibition n=1 48h [%] | other results
1 | Cc1ccc(S(=O)(=O)N2CCCN(C(=O)c3c[nH]nc3-c3ccc(F)cc3)CC2)cc1 [SN00778123] | 40.4 | 
2 | O=C(C1CC=CCC1)N1CCN(S(=O)(=O)c2c[nH]c3ncccc23)CC1 (stereo not shown) [SN00781077] | 7.5 | 
3 | O=C(Cn1nnc(-c2cccs2)n1)NCc1ccc(Cl)cc1 [SN00775829] | 45.7 | 
4 | O=C1C(=O)N(C2CCCC2)C(=O)N1Cc1nc(-c2ccsc2)no1 [SN00774178] | 0.0 | 
5 | CN1CCN(CCNC(=O)CN2C(=O)C3CCCCN3c3ccc(C(=O)N4CCCC4)cc32)CC1 (stereo not shown) [SN00792767] | 13.0 | 
6 | CN(CC1CCOC1)C(=O)Cc1ccccc1 (stereo not shown) [SN00801209] | 0.0 | 
7 | CN(C)C(=O)Cc1nc(CN2CCc3c(ncn3C)C2)cs1 [SN00781984] | 0.0 | 
8 | COc1ccc(-c2cc(N3CCC(NC(=O)Cc4ccccc4)CC3)[nH]n2)cc1 [SN00800379] | 0.0 | 
9 | O=C(CN1CCC(c2nc(-c3ccc(F)cc3)no2)CC1)NCc1ccccc1 [SN00799393] | 0.0 | 
10 | COc1ccc(-c2noc(-c3cc(-c4cccs4)n[nH]3)n2)cc1 [SN00791300] | 15.5 | 
11 | CCN(CC)CCN1C(=O)C(O)=C(C(=O)c2cccs2)C1c1ccc(C)o1 (stereo not shown) [SN00776616] | 15.0 | 
12 | CC(=O)Oc1ccc(C(=O)Nc2ccc3nc(-c4ccc(Cl)cc4)oc3c2)cc1 [SN00783571] | 0.0 | 
13 | COc1ccc(-c2nc3sccn3c2Nc2ccc3c(c2)OCO3)cc1 [SN00784546] | 0.0 | 
14 | Cc1ccc(S(=O)(=O)NC2CCN(C(=O)Cc3ccc(Br)cc3)CC2)cc1 [SN00795227] | 3.1 | 
15 | Cc1ccc(NS(=O)(=O)c2ccc(-n3cccn3)cc2)cc1 [SN00794732] | 6.0 | 
16 | CC(=O)c1cc2c(cc1NC(=O)c1cn(-c3ccc(F)cc3)nn1)OCO2 [SN00786071] | 7.4 | 
17 | COc1cc(-c2noc(-c3cc(C4CC4)n[nH]3)n2)cc(OC)c1OC [SN00779739] | 13.7 | 
18 | CCN1c2cc(C)ccc2-n2cccc2C12CCN(S(=O)(=O)c1ccc(C)cc1)CC2 [SN00785371] | 10.4 | 
19 | Cc1ccc2oc(-c3noc(C(=O)NCC4CCCO4)n3)c(C)c2c1 (stereo not shown) [SN00795207] | 0.0 | 
20 | CCN(CC)S(=O)(=O)c1ccc2c(c1)cc(C(=O)NC1CCCC1)n2C [SN00792862] | 0.0 | 
21 | O=C(Nc1cc(Cl)ccc1O)c1cc(-c2ccc(F)cc2)no1 [SN00787460] | 3.6 | 
22 | Cc1cccc(NC(=O)CN2CC(c3ccccc3)CC2=O)c1 (stereo not shown) [SN00784702] | 10.4 | 
23 | Cc1cc(C)n2nc(C(=O)N3CCCC(n4cncn4)C3)nc2n1 (stereo not shown) [SN00775270] | 8.1 | 
24 | NC(=O)c1cn(Cc2nc(-c3ccoc3)no2)nc1-c1ccccc1 [SN00770936] | 0.0 | 
25 | Cc1nn(C)c2sc(C(=O)N3CCN(S(=O)(=O)c4ccc(Br)cc4)CC3)cc12 [SN00774390] | 10.6 | 
26 | CC(C)CCNC(=O)C1CCCCN1S(=O)(=O)c1ccc(F)cc1 (stereo not shown) [SN00784282] | 5.5 | 

Row | Structure (SMILES) | % Inhibition n=1 48h [%] | other results
27 | O=c1c(Br)c(N2CCCCC2)cnn1-c1ccccc1 [SN00775416] | 8.1 | 
28 | COc1ccc(CN2CCCN(c3ncnc4ccccc34)CC2)cc1 [SN00775453] | 0.0 | 
29 | O=C(C1=C(O)C(=O)N(CCN2CCOCC2)C1c1ccncc1)c1ccccc1 (stereo not shown) [SN00776455] | 0.7 | 
30 | Cc1cccc(OCC(=O)N2CCN(Cc3nnsc3Cl)CC2)c1C [SN00777844] | 35.2 | 
31 | Cc1nc(S(=O)(=O)c2ccc(Br)cc2)c(NCc2ccccc2)o1 [SN00793357] | 27.4 | 
32 | Cc1ccccc1OCC(=O)N1CCN(Cc2nnc3n2CCCCC3)CC1 [SN00782472] | 0.5 | 
33 | O=C(NCc1ccc(Cl)cc1)c1noc2c1CCCC2 [SN00784503] | 0.0 | 
34 | CCN(c1ccc(OC)cc1)S(=O)(=O)c1csc(C(=O)N(C)C)c1 [SN00791689] | 2.7 | 
35 | Cn1c(C2CCN(C(=O)Nc3ccccc3F)CC2)cc(=O)n2nccc12 [SN00798982] | 3.2 | 
36 | O=C(Nc1cccc(C(=O)N2CCC(N3CCCC3)C2)c1)c1ccco1 (stereo not shown) [SN00783226] | 0.0 | 
37 | Cc1ccc(NC(=O)CN2CC(c3ccccc3)CC2=O)c(C)c1 (stereo not shown) [SN00784704] | 6.2 | 
38 | Cc1ccc(-c2cc3nc(C)cc(N4CCC(C(=O)NCCCN5CCCC5)CC4)n3n2)cc1 [SN00795048] | 16.1 | 
39 | CN(C)c1ccc(NC(=O)C2=NN(Cc3ccc(F)cc3)C(=O)CC2)cc1 [SN00779392] | 8.0 | 
40 | CC(C)(C)Nc1c(-c2ccc(F)cc2)nc2sc(N3CCN(Cc4ccccn4)CC3)nn12 [SN00795823] | 32.2 | 
41 | COCCc1ccc(Oc2nnnn2-c2ccccc2)cc1 [SN00775761] | 24.6 | 
42 | O=S(=O)(c1ccc(Br)cc1)c1nc(-c2ccccc2)oc1N1CCOCC1 [SN00785745] | 4.0 | 
43 | O=c1c2cc(-c3cccs3)nn2ccn1Cc1nc(-c2cccc(F)c2)no1 [SN00790579] | 8.1 | 
44 | CC(=O)c1ccc(Nc2ncnc3c2c(C)c(C)n3-c2ccccc2)cc1 [SN00789011] | 48.7 | 
45 | CCCCn1c(=O)[nH]c(=O)c2c1nc(-c1ccc(-c3cccc([N+](=O)[O-])c3)o1)n2CC [SN00775781] | 37.2 | 
46 | O=C(c1ccco1)N1CCC(NS(=O)(=O)c2ccc(Cl)cc2)CC1 [SN00795232] | 0.0 | 
47 | COc1ccccc1OC(C)C(=O)N1N=C2CCCCC2C1(O)C(F)(F)F (stereo not shown) [SN00786959] | 13.1 | 
48 | COc1cc(C(=O)N2C(=O)N(c3ccc(F)cc3)C3(C)CC2c2ccccc2O3)cc(OC)c1OC (stereo not shown) [SN00784661] | 3.1 | 
49 | COc1ccc(CCC(=O)N2CCCN(C(=O)c3cc(-c4cccc(Cl)c4)on3)CC2)cc1 [SN00782943] | 0.0 | 
50 | CC(C(=O)NC1CCCCCC1)n1c(=O)c2cccn2c2cccnc21 (stereo not shown) [SN00787599] | 8.7 | 
51 | CCc1ncncc1C(=O)N1CCN(Cc2nc(C(C)C)no2)CC1 [SN00779817] | 26.6 | 
52 | Cc1cccc(CN2CCC3(CC2)N=C(c2ccc(C)c(C)c2)C(=O)N3)c1 [SN00792562] | 12.3 | 

Row | Structure (SMILES) | % Inhibition n=1 48h [%] | other results
53 | CCN1c2cc(Cl)ccc2C(=O)NC12CCN(C(=O)Nc1ccc3c(c1)OCO3)CC2 [SN00800192] | 8.9 | 
54 | CNC(=O)N1C[C@@H](CN(C)C)[C@@H](C2CCN(CCC(C)C)CC2)C1 (relative stereo) [SN00801505] | 0.0 | 
55 | COc1ccc(-c2nc(CS(=O)(=O)c3ccc(C)cc3)no2)c(C)c1 [SN00798481] | 11.0 | 
56 | Cc1nn(C)c(N2CCC(C(=O)NC(C)C(C)C)CC2)c1[N+](=O)[O-] (stereo not shown) [SN00775640] | 7.0 | 
57 | Cn1nc2c(c1NC(=O)c1cccc(NC(=O)C(C)(C)C)c1)CCC2 [SN00777576] | 0.0 | 
58 | CCc1ncc2c(n1)CN(Cc1csc(-c3ncccn3)n1)CC2 [SN00807940] | 9.1 | 
59 | O=C(Cc1noc(-c2ccoc2)n1)NC1CCCCC1 [SN00773041] | 3.1 | 
60 | Cc1nc(C2CCN(C(=O)Nc3ccccc3)CC2)sc1C(=O)N1CCCCCC1 [SN00798241] | 0.0 | 
61 | CCCCCCNC(=O)Cc1c(C)nc2c(-c3ccccc3)c(C)nn2c1C [SN00785656] | 17.0 | 
62 | O=C(COc1ccccc1)N1CCCN(c2cccnn2)CC1 [SN00772032] | 1.9 | 
63 | O=C(C1CCN(S(=O)(=O)c2ccccc2)CC1)N1CC=C(c2ccccc2)CC1 [SN00769994] | 0.0 | 
64 | CCOC(=O)c1ccccc1NC(=O)N1Cc2c(sc3c2CCN(C)C3)-n2cccc2C1CC (stereo not shown) [SN00791557] | 10.1 | 
65 | CS(=O)(=O)c1ccc(-c2csc(-n3nccc3C(F)(F)F)n2)cc1 [SN00776135] | 7.7 | 
66 | CCCNC(=O)N1CCN(c2nc3ccccc3n3cccc23)CC1 [SN00793136] | 44.8 | Average % Inhibition 24h: 3.9%; % Inhibition n=1 24h: 7.8%; % Inhibition n=2 24h: 0.0%; Average % Inhibition 48h: 22.4%; % Inhibition n=2 48h: 0.0%
67 | Cc1ccc(-c2noc(-c3cccc(S(=O)(=O)N4CCN(c5ccc(F)cc5)CC4)c3)n2)cc1 [SN00797676] | 0.0 | 
68 | CC(C)(C)OC(=O)N1CCN(S(=O)(=O)C2CN(C(=O)C3(CN)CCC3)C2)CC1 [SN00782268] | 1.1 | 
69 | O=c1n(Cc2ccc(F)cc2)nnn1-c1ccccc1 [SN00777772] | 48.5 | 
70 | CC1(c2ccco2)NC(=O)N(CC(=O)c2ccccc2)C1=O (stereo not shown) [SN00771276] | 12.8 | 
71 | CCCn1nc2c(cc1=O)CN(Cc1nc(-c3ccco3)no1)CC2 [SN00773497] | 0.0 | 
72 | CCc1ccccc1Nc1nc(N)nc(CN2CCCN(S(=O)(=O)c3ccc(C)cc3)CC2)n1 [SN00771296] | 10.0 | 
73 | O=C(NCCCN1CCCC1)c1ccc2c(c1)N(CC(=O)N1CCCC1)C(=O)CO2 [SN00791845] | 0.0 | 
74 | Cc1ccc(C2=CC(c3ccccc3)n3nnnc3N2CC(=O)N2CCN(c3ccccc3)CC2)cc1 (stereo not shown) [SN00786799] | 34.8 | 
75 | CCCn1c(C2CCN(C(=O)Nc3ccc(F)cc3)CC2)cc(=O)n2nccc12 [SN00798971] | 19.1 | 
76 | Cc1ccccc1C1CCCN1Cc1nc2c(cnn2C)c(=O)[nH]1 (stereo not shown) [SN00772523] | 56.4 | Average % Inhibition 24h: 0.0%; % Inhibition n=1 24h: 0.0%; % Inhibition n=2 24h: 0.0%; Average % Inhibition 48h: 28.2%; % Inhibition n=2 48h: 0.0%
77 | CCCN1C(=O)c2cc(C(=O)Nc3ccc(F)cc3)ccc2C1Nc1ccc(F)cc1 (stereo not shown) [SN00785169] | 13.3 | 
78 | Cc1cccc(C)c1NC(=O)c1cc(-c2ccccc2)nc2c1cnn2Cc1cccnc1 [SN00776937] | 17.5 | 
